Measurements: patent US11505529B2, “8-phenyl-isoquinolines and pharmaceutical composition thereof used in the treatment of irritable bowel syndrome” (NATIONAL TAIWAN UNIVERSITY, priority 2017, dated 2022)
Counter-ions that a name gives are not always drawn.

Columns and labels:
[1] = tested on: TNBS mice; experiment: Intestinal pain (visceromotor response to colorectal distension) in post-TNBS colitis mice; type: in vivo, C57BL/6 mice; conditions: for intestinal pain (VMR): p.o. single dose 5 mg/kg, 90 minutes before analysis
Method: In the second model, intestinal inflammation was induced by intracolonic administration of 10% 2,4,6-trinotrobenzene sulfonic acid (TNBS) in 0.2 ml of 50% ethanol (Sigma-Aldrich, St. Louis, Mo., USA) via a 22-gauge feeding needle. Sham controls were given PBS in the same volume. Intestinal inflammatory parameters and pain levels were measured on various time points after TNBS administration.
For testing of anti-nociceptive effects in the post-TNBS model, mice were administered with novel 5-HT7R ligands by a single dose at 90 or 240 minutes before or by repeated administration of multiple doses for 10 consecutive days prior to intestinal pain measurement.
(§1) Abdominal pain was measured by visceromoter response (VMR) to colorectal distension (CRD) in mice following previously described methods with slight modification (Lu C L, Hsieh J C, Dun N J, et al. Estrogen rapidly modulates 5-hydroxytrytophan-induced visceral hypersensitivity via GPR30 in rats. Gastroenterology 2009; 137:1040-1050; Hong S, Zheng G, Wu X, et al. Corticosterone mediates reciprocal changes in CB 1 and TRPV1 receptors in primary sensory neurons in the chronically stressed rat. Gastroenterology 2011; 140:627-637 e4). Briefly, electrodes made from Teflon-coated stainless steel wire (A-M systems, Carlsborg, Wash.) were implanted in the abdominal external oblique muscles of mice at least 15 days prior to VMR experiments. The electrodes were exteriorized onto the back of the neck. Mice were habituated in the plexiglass cylinder for 30 minutes per day for 3 consecutive days before VMR experiments. The cylinder was used for partial restraint of conscious mice during the CRD experiments. For recording, electrodes were connected to an electromyogram acquisition system (AD instruments, New south wales, Australia). The colon was distended by inflating a balloon catheter inserted intra-anally such that it ended 1.5 cm proximal to the anus. Mice were subjected to four 10-second distensions (15, 40, and 65 mmHg) with 3-min rest intervals. The electromyographic (EMG) activity was amplified and digitized using a transducer (AD instruments) connected to a P511 AC amplifier (Grass instruments, Calif., USA) and Powerlab device with Chart 5 software (AD instruments). The EMG activity was rectified, and the response was recorded as the increase in the area under the curve (AUC) of the EMG amplitude during CRD versus the baseline period.

[2] = tested on: colonic tissues; experiment: Colonic histology (adverse response) after treatment in GW and TNBS mice
Text: Intestinal tissues were fixed in 4% paraformaldehyde (PFA) and embedded in paraffin wax with proper orientation of the crypt to villus axis before sectioning. Sections of 5-μm thickness were deparaffinized with xylene and graded ethanol, stained with hematoxylin and eosin (H&E), and observed under a light microscope.

[3] = tested on: GW mice; experiment: Intestinal pain (visceromotor response to colorectal distension) in mice with Giardia postinfection plus water avoidance stress (GW); type: in vivo, C57BL/6 mice; conditions: for intestinal pain (VMR): p.o. single dose 5 mg/Kg, 90 minutes before analysis
Text: Two animal models of IBS that had shown visceral hypersensitivity were used in the study, including dual challenge of postinfection combined with psychological stress, and post-inflammation. In the first model, mice were divided into two groups, including one group subjected to dual triggers of Giardia postinfection and water avoidance stress (GW) and the one group pair-fed with saline and non-handled (PN) as uninfected unstressed normal controls. Axenic Giardia lamblia trophozoites (strain GS/M, ATCC 50581) were cultured in vitro and harvested at log-phase as described in Singer et al., (T-cell-dependent control of acute Giardia lamblia infections in mice. Infect. Immun. 2000; 68:170-175) and Davids et al. (Polymeric immunoglobulin receptor in intestinal immune defense against the lumen-dwelling protozoan parasite Giardia. J Immunol 2006; 177:6281-6290). Mice were orally gavaged with 10^7 Giardia trophozoites suspended in 0.2 ml of sterile phosphate-buffered saline (PBS) or pair-fed with the same volume of PBS. The status of Giardia infection was verified after 4-7 days by enumeration of motile trophozoites in the small intestine following a cold-shock protocol (disclosed in Scott K G, Yu L C H, Buret A G. Role of CD8+ and CD4+ T lymphocytes in jejunal mucosal injury during murine giardiasis. Infect. Immun. 2004; 72:3536-3542 and Scott K G, Meddings J B, Kirk D R, et al. Intestinal infection with Giardia spp. reduces epithelial barrier function in a myosin light chain kinase-dependent fashion. Gastroenterology 2002; 123:1179-1190). On the sixth week postinfection in which the trophozoites could not be detected in the small intestine (post-clearance phase), mice were subjected to chronic psychological stress. The procedure of WAS involved placing the mouse on a platform (3×6 cm) in the center of a container (56×50 cm) with 3 cm (vertical height) of room temperature water. Mice remained on the platform for 1 hr to avoid water immersion as a psychological stress without physical harm. The 1-hr stress sessions were carried out for 10 consecutive days to mimic chronic repeated stress, and were performed between 9:00 and 12:00 to minimize the effect of the circadian rhythm. Uninfected and unstressed non-handled animals were kept in their cages as normal controls. On the last day of the stress session, intestinal pain was measured in mice.
For testing of anti-nociceptive effects in the GW model, mice were administered novel 5-HT7R ligands by a single dose 90 or 240 minutes prior to intestinal pain measurement. In additional settings, the novel ligands were repeatedly administered for 10 consecutive days 30 minutes before the start of each stress session and intestinal pain was measured immediately after the last stress session.
as §1, with “The colon was distended by inflating a balloon catheter inserted intra-anally such that it ended 1.5 cm proximal to the anus. Mice were subjected to four 10-second distensions (15, 40, and 65 mmHg) with 3-min rest intervals. The electromyographic (EMG) activity was amplified and digitized using a transducer (AD instruments) connected to a P511 AC amplifier (Grass instruments, Calif., USA) and Powerlab device with Chart 5 software (AD instruments). The EMG activity was rectified, and the response was recorded as the increase in the area under the curve (AUC) of the EMG amplitude during CRD versus the baseline period.” left out

[4] = target: 5-HT2AR (Homo sapiens, UniProt P28223); experiment: 5-HT2A receptor binding affinity
[5] = target: 5-HT7R (Homo sapiens, UniProt P34969); experiment: 5-HT7 receptor binding affinity
[6] = log D; type: physicochemical

Chain of 5-HT7R (P34969 whole entry): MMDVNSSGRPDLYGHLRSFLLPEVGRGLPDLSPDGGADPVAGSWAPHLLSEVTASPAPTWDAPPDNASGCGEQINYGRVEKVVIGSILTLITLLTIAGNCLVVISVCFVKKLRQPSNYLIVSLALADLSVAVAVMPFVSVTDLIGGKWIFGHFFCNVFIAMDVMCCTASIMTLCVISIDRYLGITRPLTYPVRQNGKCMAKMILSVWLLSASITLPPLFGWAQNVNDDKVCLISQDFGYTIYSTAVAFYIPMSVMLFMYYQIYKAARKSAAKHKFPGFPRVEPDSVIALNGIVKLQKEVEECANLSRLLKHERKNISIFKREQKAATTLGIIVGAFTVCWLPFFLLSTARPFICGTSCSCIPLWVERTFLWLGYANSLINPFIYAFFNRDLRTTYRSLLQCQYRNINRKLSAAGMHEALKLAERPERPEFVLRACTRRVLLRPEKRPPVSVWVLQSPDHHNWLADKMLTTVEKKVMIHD
Chain of 5-HT2AR (P28223 whole entry): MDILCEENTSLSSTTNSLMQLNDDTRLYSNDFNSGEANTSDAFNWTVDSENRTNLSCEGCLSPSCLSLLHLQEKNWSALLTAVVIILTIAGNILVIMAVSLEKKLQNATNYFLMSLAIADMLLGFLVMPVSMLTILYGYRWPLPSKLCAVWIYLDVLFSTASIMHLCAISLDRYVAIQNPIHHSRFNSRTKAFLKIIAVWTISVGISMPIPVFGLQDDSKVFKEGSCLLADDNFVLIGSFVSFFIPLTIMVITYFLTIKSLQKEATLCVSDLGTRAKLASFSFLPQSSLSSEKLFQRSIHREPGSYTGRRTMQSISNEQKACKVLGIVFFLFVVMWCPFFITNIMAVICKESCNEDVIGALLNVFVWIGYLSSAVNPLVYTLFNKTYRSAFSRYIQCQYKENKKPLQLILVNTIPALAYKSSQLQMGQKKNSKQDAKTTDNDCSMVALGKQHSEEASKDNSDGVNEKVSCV

Row | SMILES | intestinal pain (VMR) [1] | intestinal pain (VMR) ([3]; GW mice) | Ki [4] | Ki [5] | logD [6] | further results
1 | Cc1[nH]cnc1CN1CCc2c(c3ccccc3n2C)C1=O [ALN, alosetron hydrochloride] | had no effect on intestinal pain | reduced intestinal pain but was less efficient compared to compound 8 |  |  |  | mice with hyperemia and granulocyte infiltration in the colonic tissues ([2]; C57BL/6, mouse, in vivo): 14%; colonic histology ([2]; p.o. 5 mg/Kg, GW and TNBS mice, hydrochloride, 5 mg/kg): Hyperemia (*) and granulocyte infiltration (arrowheads) were observed
2 | CN(C)C(=O)C(CCN1CCC(O)(c2ccc(Cl)cc2)CC1)(c1ccccc1)c1ccccc1 [LPM, loperamide hydrochloride, reference compound] | had no effect on intestinal pain | had no effect on intestinal nociception |  |  |  | 
3 | COc1ccc(-c2c(O)c(OC)cc3c2CN(CCc2ccccc2F)CC3)c(OC)c1 [Compound 6] |  |  | 2.2 nM | 3.5 nM | 3.98 | 
4 | COc1ccccc1-c1c(O)c(OC)cc2c1CN(CCCc1cccnc1)CC2 [Compound 9, 6-methoxy-8-(2-methoxyphenyl)-2-(3-(pyridin-3-yl)propyl)-1,2,3,4-tetrahydroisoquinolin-7-ol] |  |  | > 1000 nM | 4.9 nM | 1.7 | 
5 | COc1ccccc1-c1c(O)c(OC)cc2c1CN(CCCc1ccc([N+](=O)[O-])cc1)CC2 [Compound 7, 6-methoxy-8-(2-methoxyphenyl)-2-(3-(4-nitrophenyl)propyl)-1,2,3,4-tetrahydroisoquinolin-7-ol] |  |  | 70 nM | 1.4 nM | 3.66 | 
6 | COc1ccccc1-c1c(O)c(OC)cc2c1CN(CCCc1ccncc1)CC2 [Compound 8, 6-methoxy-8-(2-methoxyphenyl)-2-(3-(pyridin-4-yl)propyl)-1,2,3,4-tetrahydroisoquinolin-7-ol] |  | strongest inhibition of intestinal pain to baseline levels | > 1000 nM | 5.8 nM | 1.68 | intestinal pain after repeated administration ([1]; multiple doses): reduced intestinal pain; intestinal pain, time response ([3]; GW mice, 5 mg/kg p.o. at 1.5, 4 or 12 hours prior to pain measurement): Reduction of pain levels was seen at three time points; intestinal pain, dose response ([3]; GW mice, i.p. at 0.05 and 0.5 mg/kg, 90 minutes before analysis (FIG. 9A)): Dose-dependent analgesic effects; intestinal pain, dose response ([3]; GW mice, p.o. at 1.5 and 5 mg/kg, 90 minutes before analysis (FIG. 9B)): Dose-dependent analgesic effects; intestinal pain after repeated administration ([3]; GW mice, p.o. multiple doses over 10 days): decreased intestinal pain in GW mice in a dose-dependent manner
7 | COc1ccccc1-c1c2c(cc(OC)c1OC)CCN(CCCc1ccncc1)C2 [Compound 10, 6,7-dimethoxy-8-(2-methoxyphenyl)-2-(3-(pyridin-4-yl)propyl)-1,2,3,4-tetrahydroisoquinoline] |  |  | > 1000 nM | 7.1 nM | 2.93 | 
8 | CC1CCN(CC[C@H]2CCCN2S(=O)(=O)c2cccc(O)c2)CC1.Cl [SB7, SB-269970 hydrochloride, reference compound] | had no effect on intestinal pain | had no effect on intestinal nociception |  |  |  | intestinal pain measured by VMR ([3]; i.p., 0.5 mg/Kg, IBS-like mouse model (FIG. 7)): significantly inhibited intestinal pain levels
